Source: ChEMBL document CHEMBL1697681, “Predicting phospholipidosis using machine learning” (Mol Pharm, 2010)

tested on: Phospholipidosis; assay: Literature-mined public compounds from Lowe et al phospholipidosis modelling dataset

Row | Structure (SMILES) | Phospholipidosis
1 | Nc1c(Br)cc(Br)cc1CN[C@H]1CC[C@H](O)CC1 [AMBROXOL] | Positive
2 | CC1COc2c(N3CCN(C)CC3)c(F)cc3c(=O)c(C(=O)O)cn1c23 (stereo not drawn) [OFLOXACIN] | Negative
3 | CC/C(=C(\c1ccccc1)c1ccc(OCCN(C)C)cc1)c1ccccc1 [TAMOXIFEN] | Positive
4 | CN(Cc1cnc2nc(N)nc(N)c2n1)c1ccc(C(=O)N[C@@H](CCC(=O)O)C(=O)O)cc1 [METHOTREXATE] | Negative
5 | CCOc1ccc(NC(C)=O)cc1 [PHENACETIN] | Positive
6 | ClC(Cl)(Cl)Cl [CARBON TETRACHLORIDE] | Negative
7 | CCC(c1ccc(OCCN(CC)CC)cc1)C(CC)c1ccc(OCCN(CC)CC)cc1 (stereo not drawn) [CORALGIL] | Positive
8 | CC(C)(Oc1ccc(C2CC2(Cl)Cl)cc1)C(=O)O (stereo not drawn) [CIPROFIBRATE] | Negative
9 | CN[C@@H]1[C@@H](O)[C@@H](O[C@@H]2[C@@H](O)[C@H](O[C@H]3O[C@H](C(C)N)CC[C@H]3N)[C@@H](N)C[C@H]2N)OC[C@]1(C)O (stereo partly drawn) [GENTAMICIN C2] | Positive
10 | NC[C@H]1O[C@H](O[C@H]2[C@H](O)[C@@H](O[C@H]3O[C@H](CO)[C@@H](O)[C@H](N)[C@H]3O)[C@H](N)C[C@@H]2N)[C@H](N)C[C@@H]1O [TOBRAMYCIN] | Positive
11 | CN(C)CCCN(C)[C@H]1CC[C@H]2[C@@H]3CC=C4C[C@@H](O)CC[C@]4(C)[C@H]3CC[C@]12C [AZACOSTEROL] | Positive
12 | CC(=O)O[C@]1(C(C)=O)CC[C@H]2[C@@H]3C=C(Cl)C4=CC(=O)[C@@H]5C[C@@H]5[C@]4(C)[C@H]3CC[C@@]21C [CYPROTERONE ACETATE] | Negative
13 | CCC[C@@H]1C[C@@H](C(=O)N[C@@H]([C@H]2O[C@H](SC)[C@H](O)[C@@H](O)[C@H]2O)[C@H](C)Cl)N(C)C1 [CLINDAMYCIN] | Positive
14 | C[C@](N)(Cc1ccc(O)c(O)c1)C(=O)O [METHYLDOPA] | Negative
15 | Cc1cccc(Nc2cc(Cl)nc(SCC(=O)O)n2)c1C [PIRINIXIC ACID] | Negative
16 | CCNC(C)Cc1cccc(C(F)(F)F)c1 (stereo not drawn) [FENFLURAMINE] | Positive
17 | CC(C)NCC(O)COc1cccc2ccccc12 (stereo not drawn) [PROPRANOLOL] | Positive
18 | CN[C@@H]1[C@H](O)[C@H](NC)[C@H]2O[C@@]3(O)C(=O)C[C@@H](C)O[C@H]3O[C@@H]2[C@H]1O [SPECTINOMYCIN] | Positive
